Experimental data published in patent US9980943B2, “Methods of treating muscular dystrophy” (BOARD OF REGENTS OF THE NEVADA SYSTEM OF HIGHER EDUCATION, …, priority 2013, dated 2018).

Experiments:
Assay type in all cases: cell-based, mouse
[1] = test system: β-galactosidase in CMV-LacZ C2C12 myotubes; test: CMV-LacZ secondary screen in C2C12 myotubes (β-Gal stabilizing assay); details: for CMV-LACZ in Myotubes, signal relative to DMSO: C2C12 CMV-LacZ myotubes, fold relative to DMSO; for CMV-LACZ in Myotubes, value relative to DMSO: SU9516 analogs, C2C12 CMV-LacZ, N=2
In short: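 Stable CMV-LacZ C2C12 clone; six-point curve 0.5–40 μM; duplicates.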

[2] = test system: α7 integrin (LacZ reporter in α7βgal+/− myoblasts); test: Myoblast α7+/LacZ integrin FDG assay (Burkin assay in myoblasts, 96-well); details: 96-well; for Burkin Assay in Myoblasts, signal relative to DMSO: α7+/LacZ myoblasts; for Burkin Assay in Myoblasts, value relative to DMSO: SU9516 analogs, N=3-6
[3] = test system: β-galactosidase in CMV-LacZ C2C12 myoblasts; test: CMV-LacZ secondary screen in C2C12 myoblasts (β-Gal stabilizing assay); details: for CMV-LACZ in Myoblasts (β-galactosidase activity relative to DMSO): CMV-LacZ C2C12 myoblasts; for CMV-LACZ in Myoblasts, value relative to DMSO: SU9516 analogs, C2C12 CMV-LacZ, N=2
In short: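 CMV-LacZ C2C12 line (clonal, FDG-screened); myoblasts/myotubes dosed 0.5–40 μM (0.5, 1, 5, 10, 20, 40 μM); n=2 per point; β-gal stabilization read-out.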

[4] = test system: α7 integrin (LacZ reporter in α7+/LacZ myotubes); test: Myotube α7 integrin FDG assay (Burkin assay in myotubes, 96-well); details: for Burkin Assay in Myotubes, value relative to DMSO: SU9516 analogs, 96-well, N=3-6

Question: For `COc1cc(C=O)ccc1OCC(=O)Nc1ccc2c(c1)OCO2` [MLS001123876-01], which “CMV-LACZ in Myotubes, signal relative to DMSO” value ([1]; 0.5 uM) is on record?
Answer: 0.8962

Question: And the “CMV-LACZ in Myotubes, signal relative to DMSO” value ([1]; 1 uM)?
Answer: 1.4943

Question: What about the “CMV-LACZ in Myotubes, signal relative to DMSO” value ([1]; 5 uM) of the same compound?
Answer: 0.9002

Question: And the “CMV-LACZ in Myotubes, signal relative to DMSO” value ([1]; 10 uM)?
Answer: 0.9279

Question: What about the “CMV-LACZ in Myotubes, signal relative to DMSO” value ([1]; 20 uM) of the same compound?
Answer: 0.9880

Question: What about the “CMV-LACZ in Myotubes, signal relative to DMSO” value ([1]; 40 uM) of the same compound?
Answer: 1.0300

Question: What about the “Burkin Assay in Myoblasts, signal relative to DMSO” value ([2]; 0.5 uM) of the same compound?
Answer: 1.041

Question: What about the “Burkin Assay in Myoblasts, signal relative to DMSO” value ([2]; 1 uM) of the same compound?
Answer: 0.8264

Question: And the “Burkin Assay in Myoblasts, signal relative to DMSO” value ([2]; 5 uM)?
Answer: 1.44

Question: What about the “Burkin Assay in Myoblasts, signal relative to DMSO” value ([2]; 10 uM) of the same compound?
Answer: 1.095

Question: What about the “Burkin Assay in Myoblasts, signal relative to DMSO” value ([2]; 20 uM) of the same compound?
Answer: 0.9339

Question: What about the “Burkin Assay in Myoblasts, signal relative to DMSO” value ([2]; 40 uM) of the same compound?
Answer: 0.8844

Question: What about the “CMV-LACZ in Myoblasts (β-galactosidase activity relative to DMSO)” value ([3]; 0.5 uM) of the same compound?
Answer: 0.8260

Question: And the “CMV-LACZ in Myoblasts (β-galactosidase activity relative to DMSO)” value ([3]; 1 uM)?
Answer: 1.0263

Question: And the “CMV-LACZ in Myoblasts (β-galactosidase activity relative to DMSO)” value ([3]; 5 uM)?
Answer: 0.9251

Question: And the “CMV-LACZ in Myoblasts (β-galactosidase activity relative to DMSO)” value ([3]; 10 uM)?
Answer: 0.9871

Question: And the “CMV-LACZ in Myoblasts (β-galactosidase activity relative to DMSO)” value ([3]; 20 uM)?
Answer: 0.9618

Question: What about the “CMV-LACZ in Myoblasts (β-galactosidase activity relative to DMSO)” value ([3]; 40 uM) of the same compound?
Answer: 0.7333

Question: What about the “Burkin Assay in Myotubes, α7 integrin LacZ reporter signal relative to DMSO” value ([4]; 0.5 uM) of the same compound?
Answer: 0.866

Question: What about the “Burkin Assay in Myotubes, α7 integrin LacZ reporter signal relative to DMSO” value ([4]; 1 uM) of the same compound?
Answer: 0.8193

Question: What about the “Burkin Assay in Myotubes, α7 integrin LacZ reporter signal relative to DMSO” value ([4]; 5 uM) of the same compound?
Answer: 1.1689

Question: What about the “Burkin Assay in Myotubes, α7 integrin LacZ reporter signal relative to DMSO” value ([4]; 10 uM) of the same compound?
Answer: 1.232

Question: And the “Burkin Assay in Myotubes, α7 integrin LacZ reporter signal relative to DMSO” value ([4]; 20 uM)?
Answer: 0.7114

Question: What about the “Burkin Assay in Myotubes, α7 integrin LacZ reporter signal relative to DMSO” value ([4]; 40 uM) of the same compound?
Answer: 1.003

Question: Which results are given for `O=C1Nc2ccccc2/C1=C/c1cnc(-c2ccccc2)[nH]1` [MLS000834756-01]?
Answer: CMV-LACZ in Myotubes, value relative to DMSO ([1]; 0.5 uM): 0.9859; CMV-LACZ in Myotubes, value relative to DMSO ([1]; 1 uM): 1.0059; CMV-LACZ in Myotubes, value relative to DMSO ([1]; 5 uM): 1.1994; CMV-LACZ in Myotubes, value relative to DMSO ([1]; 10 uM): 1.1713; CMV-LACZ in Myotubes, value relative to DMSO ([1]; 20 uM): 2.0788; CMV-LACZ in Myotubes, value relative to DMSO ([1]; 40 uM): 2.2953; Burkin Assay in Myoblasts, value relative to DMSO ([2]; 0.5 uM): 1.056; Burkin Assay in Myoblasts, value relative to DMSO ([2]; 1 uM): 1.098; Burkin Assay in Myoblasts, value relative to DMSO ([2]; 5 uM): 1.227; Burkin Assay in Myoblasts, value relative to DMSO ([2]; 10 uM): 1.172; Burkin Assay in Myoblasts, value relative to DMSO ([2]; 20 uM): 1.064; Burkin Assay in Myoblasts, value relative to DMSO ([2]; 40 uM): 1.081; CMV-LACZ in Myoblasts, value relative to DMSO ([3]; 0.5 uM): 0.8709; CMV-LACZ in Myoblasts, value relative to DMSO ([3]; 1 uM): 1.0422; CMV-LACZ in Myoblasts, value relative to DMSO ([3]; 5 uM): 1.2652; CMV-LACZ in Myoblasts, value relative to DMSO ([3]; 10 uM): 1.0917; CMV-LACZ in Myoblasts, value relative to DMSO ([3]; 20 uM): 0.8022; CMV-LACZ in Myoblasts, value relative to DMSO ([3]; 40 uM): 1.1889; Burkin Assay in Myotubes, value relative to DMSO ([4]; 0.5 uM): 1.079; Burkin Assay in Myotubes, value relative to DMSO ([4]; 1 uM): 1.189; Burkin Assay in Myotubes, value relative to DMSO ([4]; 5 uM): 1.095; Burkin Assay in Myotubes, value relative to DMSO ([4]; 10 uM): 0.9214; Burkin Assay in Myotubes, value relative to DMSO ([4]; 20 uM): 0.9495; Burkin Assay in Myotubes, value relative to DMSO ([4]; 40 uM): 0.9189

Question: Which results are given for `Cc1nc(Nc2ccccc2F)c2oc3ccccc3c2n1` [MLS001215123-01]?
Answer: CMV-LACZ in Myotubes, signal relative to DMSO ([1]; 0.5 uM): 1.1657; CMV-LACZ in Myotubes, signal relative to DMSO ([1]; 1 uM): 1.1457; CMV-LACZ in Myotubes, signal relative to DMSO ([1]; 5 uM): 1.1153; CMV-LACZ in Myotubes, signal relative to DMSO ([1]; 10 uM): 1.2929; CMV-LACZ in Myotubes, signal relative to DMSO ([1]; 20 uM): 1.0710; CMV-LACZ in Myotubes, signal relative to DMSO ([1]; 40 uM): 1.1030; Burkin Assay in Myoblasts, signal relative to DMSO ([2]; 0.5 uM): 1.075; Burkin Assay in Myoblasts, signal relative to DMSO ([2]; 1 uM): 0.9708; Burkin Assay in Myoblasts, signal relative to DMSO ([2]; 5 uM): 1.1241; Burkin Assay in Myoblasts, signal relative to DMSO ([2]; 10 uM): 1.155; Burkin Assay in Myoblasts, signal relative to DMSO ([2]; 20 uM): 0.665; Burkin Assay in Myoblasts, signal relative to DMSO ([2]; 40 uM): 0.5252; CMV-LACZ in Myoblasts (β-galactosidase activity relative to DMSO) ([3]; 0.5 uM): 1.0530; CMV-LACZ in Myoblasts (β-galactosidase activity relative to DMSO) ([3]; 1 uM): 0.8837; CMV-LACZ in Myoblasts (β-galactosidase activity relative to DMSO) ([3]; 5 uM): 1.0888; CMV-LACZ in Myoblasts (β-galactosidase activity relative to DMSO) ([3]; 10 uM): 1.1943; CMV-LACZ in Myoblasts (β-galactosidase activity relative to DMSO) ([3]; 20 uM): 1.2639; CMV-LACZ in Myoblasts (β-galactosidase activity relative to DMSO) ([3]; 40 uM): 1.0098; Burkin Assay in Myotubes, α7 integrin LacZ reporter signal relative to DMSO ([4]; 0.5 uM): 0.9466; Burkin Assay in Myotubes, α7 integrin LacZ reporter signal relative to DMSO ([4]; 1 uM): 0.901; Burkin Assay in Myotubes, α7 integrin LacZ reporter signal relative to DMSO ([4]; 5 uM): 1.049; Burkin Assay in Myotubes, α7 integrin LacZ reporter signal relative to DMSO ([4]; 10 uM): 1.137; Burkin Assay in Myotubes, α7 integrin LacZ reporter signal relative to DMSO ([4]; 20 uM): 0.6938; Burkin Assay in Myotubes, α7 integrin LacZ reporter signal relative to DMSO ([4]; 40 uM): 0.816

Question: What does the source list for `Cc1ccsc1CN(C)CC(=O)Nc1ccc([N+](=O)[O-])cc1Cl` [MLS001172822-01]?
Answer: CMV-LACZ in Myotubes, signal relative to DMSO ([1]; 0.5 uM): 1.2590; CMV-LACZ in Myotubes, signal relative to DMSO ([1]; 1 uM): 1.0514; CMV-LACZ in Myotubes, signal relative to DMSO ([1]; 5 uM): 1.2505; CMV-LACZ in Myotubes, signal relative to DMSO ([1]; 10 uM): 1.1819; CMV-LACZ in Myotubes, signal relative to DMSO ([1]; 20 uM): 1.1768; CMV-LACZ in Myotubes, signal relative to DMSO ([1]; 40 uM): 0.6358; Burkin Assay in Myoblasts, signal relative to DMSO ([2]; 0.5 uM): 1.233; Burkin Assay in Myoblasts, signal relative to DMSO ([2]; 1 uM): 1.351; Burkin Assay in Myoblasts, signal relative to DMSO ([2]; 5 uM): 0.9662; Burkin Assay in Myoblasts, signal relative to DMSO ([2]; 10 uM): 0.9014; Burkin Assay in Myoblasts, signal relative to DMSO ([2]; 20 uM): 0.987; Burkin Assay in Myoblasts, signal relative to DMSO ([2]; 40 uM): 0.9597; CMV-LACZ in Myoblasts (β-galactosidase activity relative to DMSO) ([3]; 0.5 uM): 0.9304; CMV-LACZ in Myoblasts (β-galactosidase activity relative to DMSO) ([3]; 1 uM): 1.0617; CMV-LACZ in Myoblasts (β-galactosidase activity relative to DMSO) ([3]; 5 uM): 1.1375; CMV-LACZ in Myoblasts (β-galactosidase activity relative to DMSO) ([3]; 10 uM): 1.0904; CMV-LACZ in Myoblasts (β-galactosidase activity relative to DMSO) ([3]; 20 uM): 0.9285; CMV-LACZ in Myoblasts (β-galactosidase activity relative to DMSO) ([3]; 40 uM): 1.2767; Burkin Assay in Myotubes, α7 integrin LacZ reporter signal relative to DMSO ([4]; 0.5 uM): 0.9496; Burkin Assay in Myotubes, α7 integrin LacZ reporter signal relative to DMSO ([4]; 1 uM): 0.9315; Burkin Assay in Myotubes, α7 integrin LacZ reporter signal relative to DMSO ([4]; 5 uM): 0.8513; Burkin Assay in Myotubes, α7 integrin LacZ reporter signal relative to DMSO ([4]; 10 uM): 0.861; Burkin Assay in Myotubes, α7 integrin LacZ reporter signal relative to DMSO ([4]; 20 uM): 0.8466; Burkin Assay in Myotubes, α7 integrin LacZ reporter signal relative to DMSO ([4]; 40 uM): 0.7858
